The values that follow are results of earlier work, collected in patent US20090306094A1 (Bristol-Myers Squibb Company, priority 2006, published 2009).

Where a name gives a salt, the structure may show the parent alone. Read-outs that look alike come from different tables or passages of the source. Where only a bound is given, the exact number is not on record here.

As a reminder, the IC50 is the midpoint of a concentration-inhibition curve.

In data set [1] the test system is imatinib-resistant BCR-ABL mutants.
Data set [2] relates to wild-type BCR-ABL.
The test system of data set [3] is imatinib-resistant BCR-ABL mutants. The settings on record: number of mutants / number tested.
Data set [4] concerns CML patients.
In data set [5] the test system is leukemic versus normal hematopoietic cells.
The test system of data set [6] is Crkl phosphorylation in primary CML patient cells. The settings on record: correlated with dephosphorylation of BCR-ABL.
Data set [7] concerns imatinib-resistant BCR-ABL mutants. The source holds these as a separate data set.
For data set [8], the system named is cells expressing imatinib-resistant BCR-ABL kinases.
In data set [9] the test system is CML cell.
The target in data set [10] is T1, BCR-ABL (Homo sapiens, UniProt P00519).
T1 construct: BCR (N-terminal part of breakpoint cluster region protein, P11274); the other entry of the earlier key: BCR (P11274, Breakpoint cluster region protein)
T1 sequence (P00519 242-493 limits assumed): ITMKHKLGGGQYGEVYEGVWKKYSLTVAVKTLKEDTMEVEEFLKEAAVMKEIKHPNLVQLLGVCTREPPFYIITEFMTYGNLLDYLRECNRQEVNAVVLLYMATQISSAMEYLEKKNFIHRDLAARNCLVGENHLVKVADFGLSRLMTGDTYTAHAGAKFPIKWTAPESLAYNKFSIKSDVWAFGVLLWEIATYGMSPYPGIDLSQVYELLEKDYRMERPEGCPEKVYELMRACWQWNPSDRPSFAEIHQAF

Data set [11] concerns BCR-ABL expressing leukemic cells.

As for `Cc1ccc(NC(=O)c2ccc(CN3CC[C@H](N(C)C)C3)c(C(F)(F)F)c2)cc1Nc1nccc(-c2cncnc2)n1` [NS-187], the “inhibition of imatinib-resistant BCR-ABL mutants” value in data set [1] was “inhibit imatinib-resistant BCR-ABL mutants”. `Cc1cn(-c2cc(NC(=O)c3ccc(C)c(Nc4nccc(-c5cccnc5)n4)c3)cc(C(F)(F)F)c2)cn1` [AMN107]: the IC50 in data set [2] is […]. Further, the “imatinib-resistant BCR-ABL mutants against which significantly active” value in [3] is reported as 32/33. Consider `Cc1ccc(NC(=O)c2ccc(CN3CCN(C)CC3)cc2)cc1Nc1nccc(-c2cccnc2)n1` [imatinib, imatinib mesylate], for which the “estimated 2-year incidence of resistance” value in data set [4] (blastic phase) is listed as 80%; in data set [4] (chronic phase post-interferon-α failure), 10%. Moreover, the “selectivity for leukemic versus normal hematopoietic cells” value in data set [5] was “highly selective”. For the same compound, the Crkl phosphorylation entry in [6] is “inhibited in a dose-dependent manner”. For `CP(C)(=O)c1ccc(Nc2nc(C3CCCC3)nc3c2ncn3CCc2cccc(O)c2)cc1` [AP23464], in [7], the “inhibition of imatinib-resistant BCR-ABL mutants” value is “inhibit imatinib-resistant BCR-ABL mutants”.

Take `COCCNCCOc1ccc(-n2cc(-c3cccc(OC)c3)c3c(N)ncnc32)cc1` [CGP76030]: in [8], the “growth and survival of cells” value was “inhibit the growth and survival”. For `COc1cc(Nc2c(C#N)cnc3cc(OCCCN4CCN(C)CC4)c(OC)cc23)c(Cl)cc1Cl` [SKI-606], in [9], the antiproliferative activity result is reported as “potent antiproliferative activity”. Turning to `Cc1cc(Nc2ncc3cc(-c4c(Cl)cccc4Cl)c(=O)n(C)c3n2)ccc1F` [PD180970], the “inhibition of BCR-ABL” value in data set [10] is on record as “inhibit BCR-ABL”. Moreover, the apoptosis result in data set [11] is “induce apoptosis”.
